# Test results taken from patent US10259848B2, “Compositions and methods comprising hydrocarbon-stapled polypeptides” (Dana-Farber Cancer Institute, Inc., priority 2008, dated 2019).
# Read-outs that look alike come from different tables or passages of the source. Positions of bridges follow the written chain, without caps; N, C: chain ends. Non-standard residues stand in square brackets, D forms with d. Residues, ends and D or L forms follow the SMILES beside them. No end group written: not given here. S5 = C=CCCC[C@](C)(N)C(=O)O; Nle = CCCC[C@H](N)C(=O)O
# Key:
# [1] = Circular dichroism, calculated α-helical content; type: physicochemical; settings: for α-helical content: comparative CD spectra, 20-mer residues 626-645
# Description: The α-helicity of stapled modified polypeptides can be compared to their unmodified counterparts by circular dichroism. CD spectra can be obtained on a Jasco J-710 or Aviv spectropolarimeter at 20° C. using the following standard measurement parameters: wavelength, 190-260 nm; step resolution, 0.5 nm; speed, […]; accumulations, 10; response, 1 sec; bandwidth, 1 nm; path length, 0.1 cm. The α-helical content of each peptide is calculated by dividing the mean residue ellipticity [Θ]222obs by the reported [Θ]222obs for a model helical peptide (Forood, B., E. J. Feliciano, and K. P. Nambiar, PNAS, 1993. 90(3): p. 838-842; J. Martin Scholtz, Biopolymers, 1991. 31(13): p. 1463-1470; Lawless, M. K., et al., Biochemistry, 1996. 35(42): p. 13697-13708) or using, for example, the Aviv machine using CDNN software developed by Brohm in order to deduce five different secondary structure fractions (helix, parallel and antiparallel beta-sheet, beta-turn and random coil). Protein Engineering, 1992. 5(3); p. 191-195
# To optimize the activity of tSAH-gp41 peptides, an alternative strategy based upon inserting one or more hydrocarbon staples into the full-length gp41-HR-2 constructs was pursued (FIG. 11, 12).
# [2] = system: syncytia formation; test: HIV syncytial formation assay; type: cell-based, HIV-1
# Description: Functional assays can also be used to evaluate the modified polypeptides activity. In culture, multinucleated giant cells or “syncytia” form as a result of direct cell-cell fusion between HIV-1-infected and uninfected CD4-positive cells. In the syncytia formation assay, an indicator cell line expressing the CD4 receptor, and a fusogenic cell line that lacks the CD4 receptor but contains HIV-1 proteins on the surface, fuse to generate 70-100 multinucleated giant cells in culture within 48 h. Syncytia are then counted using an inverted microscope. The ability of stabilized alpha helix of gp41 (SAH-gp41) compounds to inhibit syncytia formation in a dose-responsive fashion is used as a functional measure of fusion inhibition, for which IC50s can be determined and compared with peptides T20 and T649 (Brenner, T. J., et al. The Lancet, 1991. 337(8748): p. 1001-1005; Madani, N., et al., Journal of Virology, 2007. 81(2): p. 532-538).
# The compounds of the invention were assayed for inhibition of syncytial formation using methods well known to those skilled in the art. Equal amounts of either T20/gp41(638-673) or SAH-gp41(626-645)A were added to the media.
# [3] = system: HIV-1 HXBc2; test: Luciferase-based HIV infectivity assay, HXBc2; type: cell-based; settings: compared to T20
# Description: Recombinant HIV-1 bearing the envelope glycoproteins from three distinct HIV-1 strains, HXBc2, ADA, and HXBc2P 3.2, and a negative control virus bearing the amphotropic murine leukemia virus (A-MLV) envelope glycoproteins, were evaluated.
# [4] = FIGURE 16C
# Description: Table printed on a drawing sheet, FIGURE 16C
# First reader's note: The sheet prints two blocks (626-662 and 638-673 series) under one head; per the description the half-lives are in the presence of chymotrypsin at pH 7.
# [5] = FIGURE 16F
# Description: Table printed on a drawing sheet, FIGURE 16F
# [6] = system: pepsin; test: Protease exposure under acidic conditions: pepsin, pH 2; settings: pepsin solution (protease exposure under acidic conditions)
molecule,measurement,setting,value
CCCC[C@H](NC(C)=O)C(=O)N[C@H](C(=O)N[C@@H](Cc1c[nH]c2ccccc12)C(=O)N[C@@]1(C)CCCC=CCCC[C@@](C)(C(=O)N[C@@H](CCC(=O)O)C(=O)N[C@H](C(=O)N[C@@H](CC(N)=O)C(=O)N[C@@H](CC(N)=O)C(=O)N[C@@H](Cc2ccc(O)cc2)C(=O)N[C@H](C(=O)N[C@@H](CO)C(=O)N[C@@H](CC(C)C)C(=O)N[C@H](C(=O)N[C@@H](Cc2c[nH]cn2)C(=O)N[C@@H](CO)C(=O)N[C@@H](CC(C)C)C(N)=O)[C@@H](C)CC)[C@@H](C)O)[C@@H](C)CC)NC(=O)[C@H](CC(=O)O)NC(=O)[C@H](Cc2c[nH]c3ccccc23)NC(=O)[C@H](CCC(=O)O)NC1=O)[C@@H](C)O [SAH-gp41(626-645)(A)] (Ac-[Nle]TW[S5]EWD[S5]EINNYTSLIHSL-NH2; staple 4-8; N-terminus and C-terminus assumed),α-helical content,[1],48%
same,inhibition of syncytia formation (words),[2],markedly enhanced inhibitory activity
same,inhibition of syncytia formation (words),[2]; listed as SAH-gp41(626-645)A,inhibited syncytial formation more so than unmodified control polypeptides
same,anti-HXBc2 activity,[3],significant anti-HXBc2 activity
"SAH-gp41(626-662)(A,F): doubly stapled gp41(626-662) HIV-1 fusion inhibitor peptide (LTWAEWDAEINNYTSLIHSLIEESQNQAEKNAQELLE; not fully specified (bridges); also: doubly stapled, places not given here)",half-life,[4],5.02 h
same,half-life,[5],34 h
enfuvirtide,half-life at 25 μM,[6],4 min
same,calculated α-helical content,[1]; CD spectra at physiologic pH,~25%
gp41(626-645): unstapled 20-mer truncation of T649v consisting of residues 626-645 ([Nle]TW[Nle]EWDREINNYTSLIHSL) [reference compound],α-helical content,[1],20%
same,inhibition of syncytia formation (words),[2],only modest anti-syncytial activity
